Data as given in ChEMBL document CHEMBL1139135, “Orally active 4-amino-5-diarylurea-furo[2,3-d]pyrimidine derivatives as anti-angiogenic agent inhibiting VEGFR2 and Tie-2” (Bioorg Med Chem Lett, 2007).
Activity calls are given as the source filed them. No cut-off for these calls is given here.

Columns and labels:
[1] = target: Vascular endothelial growth factor receptor 2 (Homo sapiens, UniProt P35968); test: Inhibition of human VEGFR2 by HTRF method
Angiopoietin-1 receptor [2] = target: T1, Angiopoietin-1 receptor (Homo sapiens, UniProt Q02763); test: Inhibition of human Tie2 by HTRF method
Target sequence in this assay (Q02763 whole entry): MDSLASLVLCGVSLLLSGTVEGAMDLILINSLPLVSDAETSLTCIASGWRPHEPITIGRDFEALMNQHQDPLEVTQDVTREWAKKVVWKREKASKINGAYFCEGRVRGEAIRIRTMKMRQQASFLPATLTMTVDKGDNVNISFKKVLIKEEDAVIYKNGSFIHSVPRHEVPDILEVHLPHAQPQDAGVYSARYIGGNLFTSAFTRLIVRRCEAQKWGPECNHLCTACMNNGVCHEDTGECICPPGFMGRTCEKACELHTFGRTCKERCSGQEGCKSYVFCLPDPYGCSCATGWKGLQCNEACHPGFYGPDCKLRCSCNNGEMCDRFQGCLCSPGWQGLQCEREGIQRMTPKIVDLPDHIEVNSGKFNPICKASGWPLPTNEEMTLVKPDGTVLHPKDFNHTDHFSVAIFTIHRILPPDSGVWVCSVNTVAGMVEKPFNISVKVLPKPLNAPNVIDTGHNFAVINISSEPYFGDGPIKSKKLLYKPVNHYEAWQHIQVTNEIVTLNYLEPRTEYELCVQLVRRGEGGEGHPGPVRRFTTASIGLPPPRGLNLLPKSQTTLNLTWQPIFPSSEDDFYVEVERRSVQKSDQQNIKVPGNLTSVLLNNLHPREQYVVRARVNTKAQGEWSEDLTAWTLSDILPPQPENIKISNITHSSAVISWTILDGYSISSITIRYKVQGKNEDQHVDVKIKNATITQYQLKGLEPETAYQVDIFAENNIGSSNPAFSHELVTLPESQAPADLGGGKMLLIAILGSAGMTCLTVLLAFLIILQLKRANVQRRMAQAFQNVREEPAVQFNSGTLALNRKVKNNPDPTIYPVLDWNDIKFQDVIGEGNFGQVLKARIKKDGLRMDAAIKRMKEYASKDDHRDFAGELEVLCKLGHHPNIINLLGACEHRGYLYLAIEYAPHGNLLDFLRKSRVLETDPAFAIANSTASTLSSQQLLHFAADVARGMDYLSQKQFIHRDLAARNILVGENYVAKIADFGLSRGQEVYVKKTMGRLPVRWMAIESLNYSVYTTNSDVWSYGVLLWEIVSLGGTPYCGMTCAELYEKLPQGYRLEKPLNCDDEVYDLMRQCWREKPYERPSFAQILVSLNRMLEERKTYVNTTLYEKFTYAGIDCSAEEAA

[3] = target: Cyclin-dependent kinase 2 (Homo sapiens, UniProt P24941); test: Inhibition of human CDK2
[4] = target: RAC-gamma serine/threonine-protein kinase (Homo sapiens, UniProt Q9Y243); test: Inhibition of human Akt3
[5] = target: Proto-oncogene tyrosine-protein kinase Src (Homo sapiens, UniProt P12931); test: Inhibition of human SRC
Chain of Proto-oncogene tyrosine-protein kinase Src (P12931 2-536 limits assumed): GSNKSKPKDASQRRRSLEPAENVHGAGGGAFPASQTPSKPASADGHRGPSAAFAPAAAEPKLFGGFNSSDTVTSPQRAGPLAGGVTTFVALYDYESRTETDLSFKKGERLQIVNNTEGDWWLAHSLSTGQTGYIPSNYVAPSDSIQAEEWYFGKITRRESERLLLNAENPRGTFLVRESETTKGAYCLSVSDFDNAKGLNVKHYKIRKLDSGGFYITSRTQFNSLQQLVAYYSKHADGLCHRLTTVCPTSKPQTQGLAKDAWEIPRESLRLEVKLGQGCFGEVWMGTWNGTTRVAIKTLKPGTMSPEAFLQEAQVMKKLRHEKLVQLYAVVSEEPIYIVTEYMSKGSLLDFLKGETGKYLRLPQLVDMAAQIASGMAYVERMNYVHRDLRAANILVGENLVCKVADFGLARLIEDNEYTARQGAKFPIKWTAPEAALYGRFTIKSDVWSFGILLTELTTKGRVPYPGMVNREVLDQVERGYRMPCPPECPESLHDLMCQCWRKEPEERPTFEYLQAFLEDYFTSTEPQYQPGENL

[6] = AUC (0 to t) in CD1 mouse at 10.7 mg/kg, po; format: ADME, organism-based; parameters: dose 10.7 mg/kg, route oral; settings: plasma
HUVEC = test: Growth inhibition of VEGF-stimulated human HUVEC cells
[7] = target: Epidermal growth factor receptor (Homo sapiens, UniProt P00533); test: Inhibition of human EGFR
[8] = target: Platelet-derived growth factor receptor (Homo sapiens, UniProt P09619+P16234); test: Inhibition of human PDGFR; format: protein-complex assay
HT-29 [9] = test: Cytotoxicity against human HT29 cells after 3 days; settings: HT-29, 72 h
HT-29 [10] = test: Antiangiogenic activity against human HT29 cells xenografted in nude CD1 mouse; format: functional
[11] = target: Vascular endothelial growth factor receptor 1 (Homo sapiens, UniProt P17948); test: Inhibition of human VEGFR1
HT-29 [12] = test: Antiangiogenic activity against human HT29 cells xenografted in nude CD1 mouse assessed as decrease in blood vessel density at 30 mg/kg, po; format: functional; parameters: scale not given: the % may be the effect or the level left
HT-29 [13] = test: Antiangiogenic activity against human HT29 cells xenografted in nude CD1 mouse assessed as decrease in blood vessel density at 3 mg/kg, po; format: functional; parameters: scale not given: the % may be the effect or the level left
Angiopoietin-1 receptor [14] = target: T1, Angiopoietin-1 receptor; test: Inhibition of c-fms/Tie2 chimeric receptor transfected in 3T3 cell assessed as autophosphorylation activity; format: cell-based
Target sequence in this assay (Q02763 23-1124 limits assumed): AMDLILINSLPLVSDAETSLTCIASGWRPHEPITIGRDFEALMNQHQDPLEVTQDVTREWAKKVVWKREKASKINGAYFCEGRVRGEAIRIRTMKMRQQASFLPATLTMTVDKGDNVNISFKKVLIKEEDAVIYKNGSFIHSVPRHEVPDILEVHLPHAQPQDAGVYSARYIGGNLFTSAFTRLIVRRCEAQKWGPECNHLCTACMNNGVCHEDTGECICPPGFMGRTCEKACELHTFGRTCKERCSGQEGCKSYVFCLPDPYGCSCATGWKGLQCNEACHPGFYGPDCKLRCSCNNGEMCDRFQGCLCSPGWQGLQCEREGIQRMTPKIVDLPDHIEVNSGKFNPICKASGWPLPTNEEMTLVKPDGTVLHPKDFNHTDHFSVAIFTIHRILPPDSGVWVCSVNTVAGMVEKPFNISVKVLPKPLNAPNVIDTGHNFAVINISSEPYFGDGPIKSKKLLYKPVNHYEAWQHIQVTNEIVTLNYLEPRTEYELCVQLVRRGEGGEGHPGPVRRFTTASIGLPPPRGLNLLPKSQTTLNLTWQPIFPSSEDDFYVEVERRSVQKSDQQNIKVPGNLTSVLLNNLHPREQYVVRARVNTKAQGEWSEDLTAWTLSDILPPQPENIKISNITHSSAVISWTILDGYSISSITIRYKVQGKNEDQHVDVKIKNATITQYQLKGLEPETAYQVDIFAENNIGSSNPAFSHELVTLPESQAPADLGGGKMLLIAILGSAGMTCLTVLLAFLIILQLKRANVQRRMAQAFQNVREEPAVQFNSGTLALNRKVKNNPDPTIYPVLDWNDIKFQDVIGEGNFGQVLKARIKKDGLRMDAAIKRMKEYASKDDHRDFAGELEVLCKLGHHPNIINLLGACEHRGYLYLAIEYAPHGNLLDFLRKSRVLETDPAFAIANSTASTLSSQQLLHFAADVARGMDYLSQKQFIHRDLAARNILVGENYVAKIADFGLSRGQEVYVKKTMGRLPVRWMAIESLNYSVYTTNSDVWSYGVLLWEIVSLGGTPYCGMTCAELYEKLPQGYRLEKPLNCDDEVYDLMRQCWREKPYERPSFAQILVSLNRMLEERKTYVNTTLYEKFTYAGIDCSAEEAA

[15] = target: Vascular endothelial growth factor receptor 3 (Homo sapiens, UniProt P35916); test: Inhibition of human VGFR3
HFF = test: Cytotoxicity against human HFF cells after 3 days; settings: 72 h
[16] = target: Glycogen synthase kinase-3 (Homo sapiens, UniProt P49840+P49841); test: Inhibition of human GSK3; format: protein assay
[17] = target: Macrophage colony-stimulating factor 1 receptor (Homo sapiens, UniProt P07333); test: Inhibition of human cFMS
Chain of Macrophage colony-stimulating factor 1 receptor (P07333 whole entry): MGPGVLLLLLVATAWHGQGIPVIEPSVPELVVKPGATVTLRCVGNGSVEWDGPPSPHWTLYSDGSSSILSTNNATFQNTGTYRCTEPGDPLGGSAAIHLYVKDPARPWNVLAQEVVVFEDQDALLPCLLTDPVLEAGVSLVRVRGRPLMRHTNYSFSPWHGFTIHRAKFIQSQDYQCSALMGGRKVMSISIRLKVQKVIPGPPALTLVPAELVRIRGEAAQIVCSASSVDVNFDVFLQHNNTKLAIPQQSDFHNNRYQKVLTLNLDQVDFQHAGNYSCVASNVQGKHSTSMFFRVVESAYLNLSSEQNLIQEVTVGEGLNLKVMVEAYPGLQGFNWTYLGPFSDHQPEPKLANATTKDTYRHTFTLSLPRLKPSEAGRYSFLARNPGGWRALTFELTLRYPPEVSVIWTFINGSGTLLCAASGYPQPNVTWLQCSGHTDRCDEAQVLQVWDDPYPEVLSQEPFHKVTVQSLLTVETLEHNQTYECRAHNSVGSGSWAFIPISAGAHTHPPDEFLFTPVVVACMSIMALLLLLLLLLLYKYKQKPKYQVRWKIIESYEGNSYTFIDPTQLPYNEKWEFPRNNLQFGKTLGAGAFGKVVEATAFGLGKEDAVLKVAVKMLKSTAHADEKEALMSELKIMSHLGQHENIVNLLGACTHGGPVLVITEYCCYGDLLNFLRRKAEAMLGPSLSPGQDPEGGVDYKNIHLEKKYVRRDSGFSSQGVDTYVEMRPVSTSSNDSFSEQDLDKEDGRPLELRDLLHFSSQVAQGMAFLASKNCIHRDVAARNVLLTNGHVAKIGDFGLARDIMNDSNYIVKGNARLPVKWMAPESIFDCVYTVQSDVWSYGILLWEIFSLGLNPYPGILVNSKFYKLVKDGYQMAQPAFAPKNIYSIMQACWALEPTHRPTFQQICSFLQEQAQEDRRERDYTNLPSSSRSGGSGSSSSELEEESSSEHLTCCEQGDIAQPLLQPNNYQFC

[18] = Tmax in CD1 mouse at 10.7 mg/kg, po; format: ADME, organism-based; parameters: dose 10.7 mg/kg, route oral; settings: in vivo
HT-29 [19] = test: Antiangiogenic activity against human HT29 cells xenografted in nude CD1 mouse assessed as decrease in blood vessel density at 10 mg/kg, po; format: functional; parameters: scale not given: the % may be the effect or the level left
[20] = Cmax in CD1 mouse at 10.7 mg/kg, po; format: ADME, organism-based; parameters: dose 10.7 mg/kg, route oral; settings: in vivo
HT-29 [21] = test: Inhibition of tumor growth in human HT29 cells xenografted in orally dosed nude CD1 mouse; format: functional, organism-based

Chain of Vascular endothelial growth factor receptor 2 (P35968 whole entry, looked up): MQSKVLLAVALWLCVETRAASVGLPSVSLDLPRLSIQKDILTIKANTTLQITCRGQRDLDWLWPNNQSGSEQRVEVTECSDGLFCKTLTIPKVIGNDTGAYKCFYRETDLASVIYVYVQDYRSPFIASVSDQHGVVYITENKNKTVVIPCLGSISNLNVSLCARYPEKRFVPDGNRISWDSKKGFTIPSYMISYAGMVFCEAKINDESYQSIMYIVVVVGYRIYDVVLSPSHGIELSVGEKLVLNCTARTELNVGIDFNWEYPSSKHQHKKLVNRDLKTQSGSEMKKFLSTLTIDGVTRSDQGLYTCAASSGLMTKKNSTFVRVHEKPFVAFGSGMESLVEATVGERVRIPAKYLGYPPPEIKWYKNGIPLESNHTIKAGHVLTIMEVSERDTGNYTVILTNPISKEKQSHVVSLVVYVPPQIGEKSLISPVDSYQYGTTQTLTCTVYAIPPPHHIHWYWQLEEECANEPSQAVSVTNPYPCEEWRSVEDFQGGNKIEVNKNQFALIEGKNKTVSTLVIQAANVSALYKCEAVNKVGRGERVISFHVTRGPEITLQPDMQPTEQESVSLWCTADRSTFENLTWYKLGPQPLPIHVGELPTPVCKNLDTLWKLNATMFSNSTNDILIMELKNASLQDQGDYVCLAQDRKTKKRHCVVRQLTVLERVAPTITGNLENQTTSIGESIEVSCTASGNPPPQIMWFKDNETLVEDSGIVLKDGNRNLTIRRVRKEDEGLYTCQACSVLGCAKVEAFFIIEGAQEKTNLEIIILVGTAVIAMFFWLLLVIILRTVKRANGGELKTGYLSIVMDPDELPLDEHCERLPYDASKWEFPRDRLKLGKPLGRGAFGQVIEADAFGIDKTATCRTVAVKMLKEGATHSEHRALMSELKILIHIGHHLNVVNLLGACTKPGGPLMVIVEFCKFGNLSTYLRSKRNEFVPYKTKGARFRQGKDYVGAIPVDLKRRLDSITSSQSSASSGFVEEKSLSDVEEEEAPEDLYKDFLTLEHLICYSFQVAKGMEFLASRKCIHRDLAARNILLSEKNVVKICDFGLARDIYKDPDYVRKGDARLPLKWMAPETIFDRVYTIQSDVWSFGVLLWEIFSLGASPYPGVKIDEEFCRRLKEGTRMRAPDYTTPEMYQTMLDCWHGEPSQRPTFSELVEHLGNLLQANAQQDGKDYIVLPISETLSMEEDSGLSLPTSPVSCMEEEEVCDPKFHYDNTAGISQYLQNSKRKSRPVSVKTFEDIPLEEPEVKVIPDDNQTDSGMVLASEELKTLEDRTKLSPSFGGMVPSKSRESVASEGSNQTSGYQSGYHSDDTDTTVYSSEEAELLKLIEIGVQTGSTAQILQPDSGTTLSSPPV

In the case of `Nc1ncnc2occ(-c3ccc(NC(=O)Nc4cccc5ccccc45)cc3)c12`, the IC50 [1] is reported as 447 nM and the IC50 (Angiopoietin-1 receptor [2]) is reported as 182 nM.
With `Nc1ncnc2occ(-c3ccc(NC(=O)Nc4cccc(C(F)(F)F)c4)cc3)c12` [GW795493X] the IC50 [1] was 7.08 nM and the IC50 (Angiopoietin-1 receptor [2]) was 10.2 nM.
In the case of `Nc1ncnc2occ(-c3ccc(NC(=O)Nc4cc(C(F)(F)F)ccc4Cl)cc3)c12`, the IC50 [1] is reported as 186 nM and the IC50 (Angiopoietin-1 receptor [2]) is reported as 204 nM.
With `Nc1ncnc2occ(-c3ccc(NC(=O)Nc4ccc5ccccc5c4)cc3)c12` the IC50 [1] was 24 nM and the IC50 (Angiopoietin-1 receptor [2]) was 81.3 nM.
In the case of `Nc1ncnc2occ(-c3ccc(NC(=O)Nc4cc(C(F)(F)F)cc(C(F)(F)F)c4)cc3)c12` [GW795486X], the IC50 (Angiopoietin-1 receptor [2]) is reported as 380 nM.
Work on `Nc1ncnc2occ(-c3ccc(NC(=O)Nc4cc(C(F)(F)F)ccc4F)cc3)c12` [GW770249X] yielded an IC50 [3] of 17800 nM, an IC50 [4] of 17400 nM and an IC50 [5] of 537 nM. For the same compound, the AUC(0-t) [6] was 20000 ng·h/mL, the IC50 (HUVEC) was 2.6 nM and the IC50 [7] was 10000 nM. For the same compound, the IC50 [8] was 27.5 nM, the IC50 (HT-29 [9]) was 5080 nM and the Activity (HT-29 [10]) was “Active”. For the same compound, the IC50 [11] was 8.51 nM, the Activity (HT-29 [12]) was 62.9% and the Activity (HT-29 [13]) was 24.3%. It also gave an IC50 (Angiopoietin-1 receptor [14]) of 18.3 nM, an IC50 [15] of 7.59 nM and an IC50 (HFF) of 2510 nM. For the same compound, the “Log IC50” value [16] was -5.66, the IC50 [17] was 38.9 nM and the Tmax [18] was 2 h. It also gave an Activity (HT-29 [19]) of 35.6%, a Cmax [20] of 2720 ng/mL and an IC50 [1] of 7.76 nM. For the same compound, the Activity (HT-29 [21]) was “Dose-dependent effect” and the IC50 (Angiopoietin-1 receptor [2]) was 13.5 nM.
`Nc1ncnc2occ(-c3ccc(NC(=O)Nc4cccc(Oc5ccccc5)c4)cc3)c12` showed an IC50 [1] of 1740 nM and an IC50 (Angiopoietin-1 receptor [2]) of 407 nM.
Work on `COc1ccc(F)c(NC(=O)Nc2ccc(-c3coc4ncnc(N)c34)cc2)c1` yielded an IC50 [1] of 331 nM and an IC50 (Angiopoietin-1 receptor [2]) of 224 nM.
